Like-named read-outs stand apart in the source and are kept apart here.
What was measured:
AAK1 = target: T1, AAK1 (Homo sapiens, UniProt Q2M2I8); assay: HEK281 cell-based assay (phospho-mu2 Western blot in transfected HEK293F cells); settings: HEK293F cells transfected with human AAK1 and AP2M1, 3 hours, read-out: CBA IC50
T1 construct: expressed in transfected cells; host or cells: HEK293F
Procedure: HEK293F cells were cultured in media containing DMEM (Gibco, cat. #11965), 10% FBS (SAFC Biosciences, cat. #12103C), 1×GPS (glutamine, penicillin and streptomycin). On day one, cells were plated on a 10 cm dish so that they are ˜80% confluent at time of transfection. Roughly 12 million cells were in a 10 cm dish at time of transfection. On day two, each dish was transfected with 48 ug DNA and 144 ul Lipofectamine 2000 (Invitrogen, cat.#11668-019). The DNA was comprised of a mixture (per 10 cm dish) containing 3 ug AAK1/HA/pIRES (full length human, NCBI accession no. NP_055726.2), 45 μg Flag/AP2MI/pcDNA (full length human), and 1.5 ml OPTI-MEM. The Lipofectamine 2000 is made up of a mixture (per 10 cm dish) containing 144 μl Lipofectamine 2000 and 1.5 ml OPTI-MEM. Each mixture was transferred to individual 15 ml tubes and incubated at room temperature for 5 minutes, and then the two mixes were combined and incubated at room temperature for 20 minutes. Growth media was then aspirated from each 10 cm plate and replaced with 10 ml of DMEM+10% FBS (no GPS). Finally, 3 ml DNA/Lipofectamine mix was added to each 10 cm dish and mix gently followed by incubate of plate overnight at 37° C. and 5% CO2.
On day three, compounds were diluted in 100% DMSO at 1000× final concentration, followed by 3-fold serial dilutions for a total of 5 concentrations tested. Four compounds were tested per 10 cm dish. One ul of each compound dilution was then pipetted into a deep-well, 96-well plate, followed by addition of 500 μl DMEM+0.5% FBS into each well for a 2× final concentration of each compound. Cells were resuspended in a 10 cm dish by simple pipetting (HEK293 cells come off the plate that easy at this point) and then transferred to a 50 ml conical tube and pelleted by centrifugation at 1000 rpm for 5 min. Cell pellets were then resuspended in 2.75 ml DMEM+0.5% FBS per 10 cm dish and 100 μl of cell suspension transferred into each well of 96-well TC plate. Finally, 100 μl of 2× compound diluted in DMEM+0.5% FBS was then added into wells containing cell suspension for a 1× final concentration. Plates were then incubated at 37° C. and 5% CO2 for 3 hours followed by transferring of cell suspensions from each well into 12-tube PCR strips. The PCR strips were spun in a tip rack at 1000 rpm for 5 minutes to pellet cells and media was then removed by pipetting without disturbing the cell pellet.
To prepare for Western Blot analysis, cell pellets were resuspend in 40 ul 1×LDS-PAGE sample buffer (Invitrogen, cat.# NP0008)+2× Halt phophatase and protease inhibitor cocktail (Thermo Scientific, cat.#1861284), followed by sonicating each with microtip sonicator set at 5 for 8-10 seconds. Five ul of 10× NuPage Sample Reducing Agent (with […]) was to each sample followed by heat denaturing at 70 C for 10 min on PCR machine. A total of 10 μl per sample was loaded into each lane of a 4-20% Tris-Glycine Criterion 26-well gel (Biorad, cat.#345-0034) for the phospho-mu2 blot and 10 μl per lane in a 4-12% Bis-Tris (+MES buffer) NuPAGE 26-well gel (Invitrogen, cat.# WG1403BX10) for the mu2 blot. For controls, 2 ng of phospho-mu2 or 20 ng mu2/Flag proteins were loaded in the last well of each gel. After SDS-PAGE, samples on each gel were transferred to PVDF membrane using an iBlot and membranes were blocked for one hour in TBST+5% milk, followed by wash 3× for 5-10 min with TBST. Criterion gels were probed with rabbit anti-phospho-mu2 (1:5000; a rabbit polyclonal antibody produced by New England Peptide and affinity purified at Lexicon) in TBST+5% BSA, whereas, NuPAGE gels were probed with mouse anti-Flag (1:500; Sigma, cat.# F1804) in TBST+5% milk, and these primary antibodies were incubated overnight at 4° C. on a rocker. […]

[1] = target: T2, AAK1 (full-length human protein) (Homo sapiens, UniProt Q2M2I8); assay: P81 filter plate assay; assay type: biochemical; settings: 0.2 nM 2x AAK1, Mu2 substrate, 33P-ATP
T2 construct: NP_055726.2
T2 sequence (Q2M2I8 1-863 isoform Q2M2I8-2): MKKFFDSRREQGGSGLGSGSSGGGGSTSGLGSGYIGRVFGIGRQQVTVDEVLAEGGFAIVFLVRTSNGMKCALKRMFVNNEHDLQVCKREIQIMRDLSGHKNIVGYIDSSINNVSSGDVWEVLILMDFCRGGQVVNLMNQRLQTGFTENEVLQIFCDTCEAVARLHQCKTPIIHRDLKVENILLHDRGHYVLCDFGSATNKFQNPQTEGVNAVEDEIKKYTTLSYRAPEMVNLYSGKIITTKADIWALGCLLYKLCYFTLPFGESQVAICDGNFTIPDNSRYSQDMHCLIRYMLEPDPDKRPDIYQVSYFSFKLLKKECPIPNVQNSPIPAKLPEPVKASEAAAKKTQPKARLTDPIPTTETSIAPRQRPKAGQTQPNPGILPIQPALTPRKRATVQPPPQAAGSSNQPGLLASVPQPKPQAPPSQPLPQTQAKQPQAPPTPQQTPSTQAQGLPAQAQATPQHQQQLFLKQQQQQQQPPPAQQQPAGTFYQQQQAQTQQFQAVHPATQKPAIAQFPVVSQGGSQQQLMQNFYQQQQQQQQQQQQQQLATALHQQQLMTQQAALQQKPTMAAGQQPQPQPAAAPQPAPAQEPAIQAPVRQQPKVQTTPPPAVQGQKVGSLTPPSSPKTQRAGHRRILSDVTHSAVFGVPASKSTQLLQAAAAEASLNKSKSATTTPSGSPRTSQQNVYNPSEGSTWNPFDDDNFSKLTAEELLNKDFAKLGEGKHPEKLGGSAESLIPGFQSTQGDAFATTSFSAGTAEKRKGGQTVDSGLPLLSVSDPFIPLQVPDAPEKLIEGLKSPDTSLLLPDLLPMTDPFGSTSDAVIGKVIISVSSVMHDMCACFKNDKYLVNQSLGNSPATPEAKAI
Procedure: Compounds were serially diluted into a Labcyte LDV plate (Labcyte, cat# LP-0200) using a Mutiprobe (PerkinElmer) and Biomek FX (Beckman Coulter) so that the highest compound concentration was at 96 μM. Compounds were then pinged (75 nL per well) into a Greiner 384-well reaction plate (Greiner, #781076) using an ECHO 550 Liquid Handler (Labcyte). A total of 12 μl reaction buffer (IMAP buffer containing Tween and DTT, from Molecular Devices) was then added to each well of columns 1 and 13 for the negative controls and 12 μl of 2×AAK1 (0.2 nM full-length human protein, NCBI accession no. NP_055726.2) was added to the remaining wells. Enzyme was then pre-incubated with compound for 10 minutes at RT. Reactions were initiated upon Minitrak (PerkinElmer) addition of 12 μl substrate mix containing 2×Mu2 (0.2 μM, full length human protein), 2× cold ATP (2 μM), and 1.3 μCi of hot ^33P-ATP. Reactions proceeded for one hour at RT. Meanwhile, Millipore 384-well P81 filter plates (Millipore, catalog # MZPHN0W10) were placed on a plate washer (Zoom ZW, from Titertek) and pre-wet with 50 μl […] phosphoric acid. Kinase reactions were then stopped upon addition of 24 μl of 2% phosphoric acid to each well and the Minitrak was then used to transfer 40 μl from each well into the pre-wet Millipore 384-well P81 filter plates. Reaction mixtures were incubated for 10 minutes at room temperature in the P81 plates, followed by washing five times with 100 μl/well of 1% phosphoric acid using the Zoom filter washer. The bottom of each filter plate was sealed followed by addition of 20 μl Microscint 40 to each well, sealing the top of the plates with Flashplate cover, and then waiting one hour until reading on the TopCount (PerkinElmer).

PC12 cells = settings: Kuai et al. 2011; cited from earlier work

T1 sequence (Q2M2I8 1-863 isoform Q2M2I8-2): as above

| SMILES | IC50 (AAK1; class symbols) | IC50 ([1]; class symbols) | IC50 (AAK1; numeric bounds) | IC50 ([1]; numeric bounds) | Effect on Neuregulin-1 induced neurite outgrowth (PC12 cells) |
| --- | --- | --- | --- | --- | --- |
| COc1ccc(F)cc1-c1cnn2ccc(-c3ccn(CCC(F)(F)F)c(=O)c3)nc12 [4-(3-(5-fluoro-2-methoxyphenyl)pyrazolo[1,5-a]pyrimidin-5-yl)-1-(3,3,3-trifluoropropyl)pyridin-2(1H)-one] | ≤ 10 nM | ≤ 100 nM |  |  |  |
| COC(=O)[C@@]1(O)C[C@H]2O[C@]1(C)n1c3ccccc3c3c4c(c5c6ccccc6n2c5c31)C(=O)NC4 [K252a] |  |  |  |  | potentiation of Neuregulin-1 induced neurite outgrowth |
| COc1ncc(F)cc1-c1cnn2ccc(-c3ccn(CCC(C)(C)C)c(=O)c3)nc12 [1-(3,3-dimethylbutyl)-4-(3-(5-fluoro-2-methoxypyridin-3-yl)pyrazolo[1,5-a]pyrimidin-5-yl)pyridin-2(1H)-one] | ≤ 10 nM | ≤ 10 nM |  |  |  |
| COc1ncccc1-c1cnn2ccc(-c3ccn(CCOC(C)C)c(=O)c3)nc12 [1-(2-isopropoxyethyl)-4-(3-(2-methoxypyridin-3-yl)pyrazolo[1,5-a]pyrimidin-5-yl)pyridin-2(1H)-one] | ≤ 10 nM | ≤ 100 nM |  |  |  |
| COc1ncccc1-c1cnn2ccc(-c3ccn(CCC(C)(C)C)c(=O)c3)nc12 [1-(3,3-Dimethylbutyl)-4-(3-(2-methoxypyridin-3-yl)pyrazolo[1,5-a]pyrimidin-5-yl)pyridin-2(1H)-one] | ≤ 10 nM | ≤ 10 nM |  |  |  |
| COc1ncccc1-c1cnn2ccc(-c3ccn(CCN4CCOCC4)c(=O)c3)nc12 [4-(3-(2-methoxypyridin-3-yl)pyrazolo[1,5-a]pyrimidin-5-yl)-1-(2-morpholinoethyl)pyridin-2(1H)-one] | ≤ 10 nM | ≤ 10 nM |  |  |  |
| COc1nc(C)ccc1-c1cnn2ccc(-c3ccn(CCC(F)(F)F)c(=O)c3)nc12 [4-(3-(2-methoxy-6-methylpyridin-3-yl)pyrazolo[1,5-a]pyrimidin-5-yl)-1-(3,3,3-trifluoropropyl)pyridin-2(1H)-one] | ≤ 10 nM | ≤ 100 nM |  |  |  |

Now from value to molecule, other results behind:

| IC50 (AAK1; class symbols) | IC50 ([1]; class symbols) | IC50 (AAK1; numeric bounds) | IC50 ([1]; numeric bounds) | SMILES | Effect on Neuregulin-1 induced neurite outgrowth (PC12 cells) |
| --- | --- | --- | --- | --- | --- |
| ≤ 10 nM | ≤ 10 nM |  |  | CC(C)CCn1ccc(-c2ccn3ncc(I)c3n2)cc1=O [4-(3-iodopyrazolo[1,5-a]pyrimidin-5-yl)-1-isopentylpyridin-2(1H)-one] |  |
| ≤ 10 nM | ≤ 10 nM |  |  | COc1ccc(F)cc1-c1cnn2ccc(-c3ccn(CCC(C)C)c(=O)c3)nc12 [4-(3-(5-fluoro-2-methoxyphenyl)pyrazolo[1,5-a]pyrimidin-5-yl)-1-isopentylpyridin-2(1H)-one] |  |
|  |  | > 300 nM | > 100 nM | CC(C)OC(=O)N(C)CCCc1ccn2nccc2n1 [isopropyl methyl(3-(pyrazolo[1,5-a]pyrimidin-5-yl)propyl)carbamate] |  |
| ≤ 10 nM | ≤ 10 nM |  |  | COc1ncc(F)cc1-c1cnn2ccc(-c3ccn(CCC(C)C)c(=O)c3)nc12 [4-(3-(5-fluoro-2-methoxypyridin-3-yl)pyrazolo[1,5-a]pyrimidin-5-yl)-1-isopentylpyridin-2(1H)-one] |  |
| ≤ 10 nM | ≤ 10 nM |  |  | COc1ncc(F)cc1-c1cnn2ccc(-c3ccn(CCC(F)(F)F)c(=O)c3)nc12 [4-(3-(5-fluoro-2-methoxypyridin-3-yl)pyrazolo[1,5-a]pyrimidin-5-yl)-1-(3,3,3-trifluoropropyl)pyridin-2(1H)-one] |  |
| ≤ 10 nM | ≤ 100 nM |  |  | CC(C)CCn1ccc(-c2ccn3ncc(Cl)c3n2)cc1=O [4-(3-chloropyrazolo[1,5-a]pyrimidin-5-yl)-1-isopentylpyridin-2(1H)-one] |  |
| ≤ 10 nM | ≤ 10 nM |  |  | CC(C)CCn1ccc(-c2ccn3ncc(Br)c3n2)cc1=O [4-(3-bromopyrazolo[1,5-a]pyrimidin-5-yl)-1-isopentylpyridin-2(1H)-one] |  |

From patent publication US9862724B2, “Pyrazolo[1,5-a]pyrimidine-based compounds, compositions comprising them, and methods of their use” (LEXICON PHARMACEUTICALS, INC., priority 2013, dated 2018)
